“Also recorded” adds a separate entry of the source.
These substances were tested on microorganisms (assay: Targeting peptide binding to target microorganisms (Tables 3, 10, 12)). Details: peptide binding in aqueous buffers that varied with peptide solubility; preferably 1x PBS.
Source text: In certain embodiments, the targeting moiety comprises one or more targeting peptides that bind particular bacteria, fungi, and/or yeasts, and/or algae, and/or viruses and/or that bind particular groups of bacteria, and/or groups of fungi, and/or groups of yeasts, and/or groups of algae.
In certain embodiments the targeting peptides include peptides comprising or consisting of one or more of the amino acid sequences shown in Table 3 (SEQ ID NOs:13-1566). In various embodiments the peptides include peptides comprising or consisting of the retro, inverso, retro-inverso, and/or beta form of one or more of the amino acid sequences shown in Table 3. Also contemplated are circular permutations of these sequences as well as peptides comprising or consisting of the retro, inverso, retro-inverso, and/or beta form of such circular permutations.
In certain embodiments the targeting peptide can comprise one or more domains capable of binding, specifically binding, or preferentially binding to a microorganism, e.g., a target microbial organism (see, e.g., Table 3). In certain embodiment, the targeting peptide be identified via screening peptide libraries. For example, a phage display peptide library can be screened against a target microbial organism or a desired antigen or epitope thereof. Any peptide identified through such screening can be used as a targeting peptide for the target microbial organism.

Row | Substance | Target(s) (microorganism bound by the targeting peptide)
1 | 1T-78 (FFKTIFVLILGALGVAAGLYIEKNYIDK; Peptide with targeting and/or antimicrobial activity) | S. pneumoniae
2 | 1T-79 (FGTPWSITNFWKKNFNDRPDFDSDRRRY; Peptide with targeting and/or antimicrobial activity) | S. pneumoniae
3 | 1T-80 (GGNLGPGFGVIIP; Peptide with targeting and/or antimicrobial activity) | S. pneumoniae
4 | 1T-81 (AIATGLDIVDGKFDGYLWA; Peptide with targeting and/or antimicrobial activity) | S. pneumoniae
5 | 1T-82 (FGVGVGIALFMAGYAIGKDLRKKFGKSC; Peptide with targeting and/or antimicrobial activity) | S. pneumoniae
6 | 1T-83 (QKPRKNETFIGYIQRYDIDGNGYQSLPCPQN; Peptide with targeting and/or antimicrobial activity) | S. pneumoniae
7 | 1T-84 (FRKKRYGLSILLWLNAFTNLVNSIHAFYMTLF; Peptide with targeting and/or antimicrobial activity) | S. pneumoniae
8 | 1T-86 (HRKNPVLGVGRRHRAHNVA; Peptide with targeting and/or antimicrobial activity) | S. mitis; also recorded: S. oralis; also recorded: S. salivarious
9 | 1T-87 (EAVGQDLVDAHHP; Peptide with targeting and/or antimicrobial activity) | S. mitis; also recorded: S. mutans; also recorded: S. oralis
10 | 1T-89 (HEDDKRRGMSVEVLGFEVVQHEE; Peptide with targeting and/or antimicrobial activity) | S. mitis; also recorded: S. mutans
11 | 1T-90 (RNVIGQVL; Peptide with targeting and/or antimicrobial activity) | S. gordonii; also recorded: S. mitis; also recorded: S. mutans; also recorded: S. oralis; also recorded: S. sanguinis
12 | 1T-91 (TSVRPGAAGAAVPAGAAGAAGAGWRWP; Peptide with targeting and/or antimicrobial activity) | S. mitis; also recorded: S. mutans; also recorded: S. oralis; also recorded: S. sanguinis
13 | 1T-92 (GQDEGQRRAGVGEGQGVDG; Peptide with targeting and/or antimicrobial activity) | S. mitis; also recorded: S. mutans
14 | 1T-93 (AMRSVNQA; Peptide with targeting and/or antimicrobial activity) | S. epidermidis; also recorded: S. gordonii; also recorded: S. mitis; also recorded: S. mutans; also recorded: S. oralis; also recorded: S. sanguinis
15 | 1T-94 (DQVAHSGDMLVQARRRDS; Peptide with targeting and/or antimicrobial activity) | S. mitis; also recorded: S. mutans; also recorded: S. oralis
16 | 1T-95 (GHLLRVGGRVGGVGGVAGACAQPFGGQ; Peptide with targeting and/or antimicrobial activity) | S. gordonii; also recorded: S. mitis; also recorded: S. mutans; also recorded: S. oralis; also recorded: S. sanguinis
17 | 1T-96 (VAGACAQPFGGQ; Peptide with targeting and/or antimicrobial activity) | S. gordonii; also recorded: S. mitis; also recorded: S. mutans; also recorded: S. oralis; also recorded: S. sanguinis
18 | 1T-99 (MKAWLGQ; Peptide with targeting and/or antimicrobial activity) | S. gordonii; also recorded: S. mitis; also recorded: S. mutans; also recorded: S. oralis; also recorded: S. sanguinis
19 | 1T-100 (LDPLEPRIAPPGDRSHQGAPACHRDPLRGRSARDAER; Peptide with targeting and/or antimicrobial activity) | S. gordonii; also recorded: S. mitis; also recorded: S. mutans
20 | 1T-101 (RLRVGRATDLPLTSFAVGVVRNLPDAPAH; Peptide with targeting and/or antimicrobial activity) | A. naeslundii; also recorded: P. gingivalis; also recorded: S. epidermidis; also recorded: S. gordonii; also recorded: S. mitis; also recorded: S. mutans; also recorded: S. oralis; also recorded: S. sanguinis

Row | Substance | Target(s) (microorganism bound by the targeting peptide)
21 | 1T-104 (RAVAAHLQGRHHGHQVRRQRHGQR; Peptide with targeting and/or antimicrobial activity) | S. mitis
22 | 1T-105 (GEGLPPPVLHLPPPRMSGR; Peptide with targeting and/or antimicrobial activity) | S. epidermidis; also recorded: S. gordonii; also recorded: S. mitis; also recorded: S. mutans; also recorded: S. oralis
23 | 1T-106 (DALRRSRSQGRRHR; Peptide with targeting and/or antimicrobial activity) | S. gordonii; also recorded: S. mitis; also recorded: S. mutans; also recorded: S. oralis; also recorded: S. salivarious
24 | 1T-107 (SPVPRFTAVGGVSRGSP; Peptide with targeting and/or antimicrobial activity) | A. naeslundii; also recorded: S. epidermidis; also recorded: S. gordonii; also recorded: S. mitis; also recorded: S. mutans; also recorded: S. oralis; also recorded: S. salivarious; also recorded: S. sanguinis
25 | 1T-108 (WGPLGPERPLW; Peptide with targeting and/or antimicrobial activity) | S. gordonii; also recorded: S. mitis; also recorded: S. mutans; also recorded: S. oralis; also recorded: S. salivarious; also recorded: S. sanguinis
26 | 1T-109 (VTTNVRQGAGS; Peptide with targeting and/or antimicrobial activity) | A. naeslundii; also recorded: S. epidermidis; also recorded: S. gordonii; also recorded: S. mitis; also recorded: S. mutans; also recorded: S. oralis; also recorded: S. salivarious; also recorded: S. sanguinis
27 | 1T-110 (LAAKTAVCVGRAFM; Peptide with targeting and/or antimicrobial activity) | A. naeslundii; also recorded: P. gingivalis; also recorded: S. epidermidis; also recorded: S. gordonii; also recorded: S. mitis; also recorded: S. mutans; also recorded: S. oralis; also recorded: S. sanguinis
28 | 1T-112 (SDNDGKLILGTSQ; Peptide with targeting and/or antimicrobial activity) | S. gordonii
29 | 1T-113 (HGAHQRTGQRLHHHRGRTVSGCRQNPVAGVDPDEHR; Peptide with targeting and/or antimicrobial activity) | S. mitis
30 | 1T-114 (RQAPGPGLVTITAACSAPGSRSR; Peptide with targeting and/or antimicrobial activity) | A. naeslundii; also recorded: P. gingivalis; also recorded: S. epidermidis; also recorded: S. gordonii; also recorded: S. mitis; also recorded: S. mutans; also recorded: S. oralis; also recorded: S. sanguinis
31 | 1T-117 (GPGVVGPAPFSRLPAHALNL; Peptide with targeting and/or antimicrobial activity) | S. mutans
32 | 1T-119 (SPATQKAPTRAQPSRAPVQDCGDGRPTAAPDDVERLSPR; Peptide with targeting and/or antimicrobial activity) | S. gordonii; also recorded: S. mitis; also recorded: S. mutans; also recorded: S. oralis
33 | 1T-121 (FAKETGFGIGGAQEGWWIIADIYGPNPF; Peptide with targeting and/or antimicrobial activity) | S. gordonii; also recorded: S. mitis; also recorded: S. mutans; also recorded: S. oralis; also recorded: S. salivarious; also recorded: S. sanguinis
34 | 1T-122 (GAIPDPVTHRVDWEEDHQTRPSR; Peptide with targeting and/or antimicrobial activity) | S. mitis
35 | 1T-123 (LVRRNAVAGRSDGLAGAEQLDLVRLQGVL; Peptide with targeting and/or antimicrobial activity) | S. gordonii
36 | 1T-124 (LFDERNKIA; Peptide with targeting and/or antimicrobial activity) | S. mitis; also recorded: S. mutans; also recorded: S. oralis
37 | 1T-125 (DAITGGNPPLSDTDGLRP; Peptide with targeting and/or antimicrobial activity) | S. epidermidis; also recorded: S. gordonii; also recorded: S. mutans; also recorded: S. oralis
38 | 1T-126 (QGLARPVLRRIPL; Peptide with targeting and/or antimicrobial activity) | S. gordonii; also recorded: S. mitis; also recorded: S. mutans
39 | 1T-139 (AVAGAAVGALLGNDARSTAVGAAIGGALGAGAGELTKNK; Peptide with targeting and/or antimicrobial activity) | A. naeslundii; also recorded: S. gordonii; also recorded: S. mitis; also recorded: S. mutans; also recorded: S. oralis
